# Source: patent publication US8895744B2, “Alfa-carboline inhibitors of NPM-ALK, RET, and Bcr-Abl” (Universita' Degli Studi di Milano-Bicocca, priority 2008, dated 2014)
# Key:
# [1] = target: T1, Recombinant ALK kinase (Homo sapiens, UniProt Q9UM73); assay: ALK kinase inhibitory activity, ELISA-based in vitro kinase assay; type: biochemical; conditions: purified rALK, 0.3 mM ATP, read-out: ALK IC50
# T1 construct: made in house; host or cells: Sf9 insect cells (baculovirus)
# In short: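 Sf9-expressed, purified recombinant ALK phosphorylated a plate-coated peptide substrate with 0.3 mM ATP, Mn2+/Mg2+, pH 7.5, 15 min at 30° C, after 10 min inhibitor preincubation. Phosphotyrosine was detected by anti-pTyr ELISA (TMB, A450); IC50 in μM is the concentration giving 50% inhibition relative to control.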
# [2] = target: T2, Recombinant Ret protein (Homo sapiens, UniProt P07949); assay: RET kinase inhibitory activity, ELISA-based in vitro kinase assay; type: biochemical; conditions: purified Ret, 0.3 mM ATP
# T2 construct: made in house; host or cells: Sf9 cells (baculovirus)
# T2 sequence (P07949 29-1114): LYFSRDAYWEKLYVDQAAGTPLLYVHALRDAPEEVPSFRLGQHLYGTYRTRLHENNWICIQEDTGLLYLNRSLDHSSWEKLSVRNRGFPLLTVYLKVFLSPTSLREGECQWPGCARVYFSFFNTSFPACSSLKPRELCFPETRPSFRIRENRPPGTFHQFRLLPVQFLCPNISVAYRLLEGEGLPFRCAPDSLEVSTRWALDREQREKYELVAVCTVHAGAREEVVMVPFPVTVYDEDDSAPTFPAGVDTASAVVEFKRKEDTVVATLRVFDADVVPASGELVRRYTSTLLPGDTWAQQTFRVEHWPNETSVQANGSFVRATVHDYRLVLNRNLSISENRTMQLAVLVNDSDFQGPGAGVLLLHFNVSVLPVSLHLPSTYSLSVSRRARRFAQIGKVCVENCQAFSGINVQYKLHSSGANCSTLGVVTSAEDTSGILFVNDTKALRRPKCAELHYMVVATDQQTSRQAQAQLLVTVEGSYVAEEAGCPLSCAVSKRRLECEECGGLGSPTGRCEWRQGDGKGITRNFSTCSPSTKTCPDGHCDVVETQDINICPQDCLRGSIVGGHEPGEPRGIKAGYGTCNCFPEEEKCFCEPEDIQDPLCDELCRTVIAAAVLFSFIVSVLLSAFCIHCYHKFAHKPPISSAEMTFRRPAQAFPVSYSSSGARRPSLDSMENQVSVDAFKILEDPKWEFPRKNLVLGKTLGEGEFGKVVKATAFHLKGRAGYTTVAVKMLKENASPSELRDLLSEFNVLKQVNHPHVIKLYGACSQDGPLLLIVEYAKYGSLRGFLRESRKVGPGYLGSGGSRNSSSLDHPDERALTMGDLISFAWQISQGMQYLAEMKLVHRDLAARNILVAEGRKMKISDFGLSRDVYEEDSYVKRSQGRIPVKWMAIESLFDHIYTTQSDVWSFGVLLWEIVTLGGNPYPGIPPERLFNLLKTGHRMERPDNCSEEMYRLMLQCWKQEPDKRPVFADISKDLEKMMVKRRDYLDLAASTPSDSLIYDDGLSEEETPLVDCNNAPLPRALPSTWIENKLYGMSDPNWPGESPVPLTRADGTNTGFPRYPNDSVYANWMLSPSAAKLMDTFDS
# [3] = target: BaF3 cells transformed with the oncogenic fusion protein bcr-abl (Homo sapiens, UniProt P00519); assay: Tritiated thymidine uptake cell proliferation assay, BaF3 BCR/ABL; type: cell-based; conditions: 3[H]-thymidine uptake, 72 h; read-out: BaF BCR/ABL IC50
# Procedure: (§1) Inhibition of the Proliferation of Bcr/Abl Positive Cells
# (§2) Method: Tritiated Thymidine Uptake Cell Proliferation Assay
# (§3) The following procedure was used with parent untransformed BaF3 cells, BaF3 cells transformed with the oncogenic fusion protein bcr-abl, Abl-negative U937 cells, or Bcr-abl positive LAMA-84 cells. The parent untransformed BaF3 cells and Abl-negative U937 cells are used as controls. Cells were seeded in U-bottomed 96-well plates at 10 000 cells/well in a volume of 100 μL in supplemented medium. In the case of the parent untransformed BaF3 cells, the medium was supplemented with IL-3. Serial dilutions of inhibitors were added to the appropriate wells and volumes adjusted to 200 μL. Controls were treated with the equivalent volume of vehicle, DMSO, alone. Plates were incubated at 37° C. for 72 h. ^3[H]-thymidine (1 μCi/well) was added for the last 16 h of incubation. Cells were harvested on to paper filters and ^3[H]-thymidine incorporation was measured using a β scintillation counter (1430 MicroBeta, Wallac, Turku, Finland). The 50% inhibitory concentration (IC50) was defined as the concentration of inhibitor, expressed in micromolar, that gave a 50% decrease in ^3H-thymidine uptake compared with controls.
# [4] = system: parent untransformed BaF3 cells; assay: Tritiated thymidine uptake cell proliferation assay, parental BaF3 (control); type: cell-based; conditions: Mus musculus, 3[H]-thymidine uptake, 72 h, medium with IL-3, read-out: BaF parental IC50
# In short: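 Control lines were parental BaF3 in IL-3-supplemented medium and ALK-, Abl- or RET-negative U937, seeded at 10 000 cells/well with serial inhibitor dilutions for 72 h at 37 °C. ³H-thymidine (1 μCi/well) was added for the final 16 h; IC50 (μM) is the concentration halving uptake versus DMSO.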
# [5] = target: T3, BaF3 cells transformed with the oncogenic fusion protein RET-PTC2 (Homo sapiens, UniProt P07949); assay: Tritiated thymidine uptake cell proliferation assay, BaF3 RET/PTC; type: cell-based; conditions: 3[H]-thymidine uptake, 72 h; read-out: BaF RET/PTC IC50
# T3 construct: fused on or other part: P10644 (cAMP-dependent protein kinase type I-alpha regulatory subunit)
# Procedure: Inhibition of the Proliferation of RET-positive Cells
# as §2
# as §3, with “RET-PTC2,” for “bcr-abl, Abl-negative U937 cells,”, “RET-negative 11937” for “Bcr-abl positive LAMA-84”, “RET-negative” for “Abl-negative”, “^3[H]-thymidine” for “^3H-thymidine”
# [6] = target: T4, BaF3 cells transformed with the oncogenic fusion protein NPM/ALK (Homo sapiens, UniProt Q9UM73); assay: Tritiated thymidine uptake cell proliferation assay, BaF3 NPM/ALK; type: cell-based; conditions: 3[H]-thymidine uptake, 72 h; read-out: BaF NPM/ALK IC50
# T4 construct: fused on or other part: P06748 (Nucleophosmin)
# T4 sequence (Q9UM73 whole entry, change not shown, the tested form may be a part): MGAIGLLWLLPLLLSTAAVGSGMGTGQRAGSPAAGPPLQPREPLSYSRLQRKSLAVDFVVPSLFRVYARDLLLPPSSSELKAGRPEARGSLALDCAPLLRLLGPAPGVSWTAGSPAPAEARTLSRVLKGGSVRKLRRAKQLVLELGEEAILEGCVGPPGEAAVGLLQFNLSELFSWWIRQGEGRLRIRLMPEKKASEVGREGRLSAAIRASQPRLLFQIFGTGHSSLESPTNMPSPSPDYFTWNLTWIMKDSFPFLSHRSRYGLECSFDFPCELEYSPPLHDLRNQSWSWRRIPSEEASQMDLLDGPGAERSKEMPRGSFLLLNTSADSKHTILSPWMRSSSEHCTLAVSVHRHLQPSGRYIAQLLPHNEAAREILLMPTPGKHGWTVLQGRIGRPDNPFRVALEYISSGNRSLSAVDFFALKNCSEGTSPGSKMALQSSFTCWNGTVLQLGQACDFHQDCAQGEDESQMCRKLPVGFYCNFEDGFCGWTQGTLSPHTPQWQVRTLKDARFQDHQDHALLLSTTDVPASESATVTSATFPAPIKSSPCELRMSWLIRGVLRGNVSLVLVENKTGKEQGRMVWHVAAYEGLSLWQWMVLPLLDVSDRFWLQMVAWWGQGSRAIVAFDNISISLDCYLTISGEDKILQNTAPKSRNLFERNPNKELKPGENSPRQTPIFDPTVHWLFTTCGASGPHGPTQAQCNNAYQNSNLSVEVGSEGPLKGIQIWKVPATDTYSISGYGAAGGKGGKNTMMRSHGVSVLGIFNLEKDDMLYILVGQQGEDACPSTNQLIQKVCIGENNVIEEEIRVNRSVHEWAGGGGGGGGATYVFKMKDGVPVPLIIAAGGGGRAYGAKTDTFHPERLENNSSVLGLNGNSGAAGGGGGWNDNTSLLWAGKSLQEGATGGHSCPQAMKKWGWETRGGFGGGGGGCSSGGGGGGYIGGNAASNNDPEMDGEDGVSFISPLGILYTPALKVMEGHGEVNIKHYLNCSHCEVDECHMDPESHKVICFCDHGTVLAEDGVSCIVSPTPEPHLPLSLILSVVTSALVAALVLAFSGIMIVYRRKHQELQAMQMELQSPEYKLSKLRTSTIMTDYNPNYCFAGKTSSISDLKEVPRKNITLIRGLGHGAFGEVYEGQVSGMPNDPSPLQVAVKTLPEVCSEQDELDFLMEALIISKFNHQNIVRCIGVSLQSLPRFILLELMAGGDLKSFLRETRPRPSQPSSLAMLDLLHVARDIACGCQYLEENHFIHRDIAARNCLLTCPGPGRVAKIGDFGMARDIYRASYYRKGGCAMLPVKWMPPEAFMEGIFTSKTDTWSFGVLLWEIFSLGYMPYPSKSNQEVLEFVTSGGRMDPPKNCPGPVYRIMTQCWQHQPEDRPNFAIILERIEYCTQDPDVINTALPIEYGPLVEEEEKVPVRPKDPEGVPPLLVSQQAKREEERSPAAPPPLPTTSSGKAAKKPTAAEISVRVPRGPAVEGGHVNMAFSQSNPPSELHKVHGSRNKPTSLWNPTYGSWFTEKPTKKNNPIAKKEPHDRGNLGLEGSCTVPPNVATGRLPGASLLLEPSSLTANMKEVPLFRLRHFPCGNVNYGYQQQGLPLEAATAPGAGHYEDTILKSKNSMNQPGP
# In short: (§4)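 Cells were seeded at 10 000/well with serial inhibitor dilutions or DMSO vehicle and incubated 72 h at 37 °C, with ^3[H]-thymidine (1 μCi/well) added for the final 16 h. Incorporation was read by β scintillation counting. IC50 (μM) is the concentration giving a 50% decrease in uptake versus controls.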
# [7] = target: T5, Recombinant Abl T315I protein (Homo sapiens, UniProt P00519, T315I); assay: Abl T315I mutant kinase inhibitory activity, ELISA-based in vitro kinase assay; type: biochemical; conditions: purified Abl T315I, 0.3 mM ATP
# T5 construct: made in house; host or cells: Sf9 cells (baculovirus)
# In short: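 His-tagged human Abl T315I from Sf9 cells, preincubated 10 min at room temperature with inhibitor, then reacted on peptide-coated plates with 0.3 mM ATP, 1 mM MnCl2, 5 mM MgCl2 in 50 mM Tris pH 7.5. Phosphotyrosine detected by anti-pTyr/HRP ELISA at 450 nm; IC50 as 50% inhibition vs control.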
# [8] = system: NPM/ALK positive KARPAS-299 cells; assay: Tritiated thymidine uptake cell proliferation assay, KARPAS-299; type: cell-based; conditions: 3[H]-thymidine uptake, 72 h, read-out: K299 (NPM/ALK+) IC50
# Procedure: Inhibition of the proliferation of NPM/ALK positive cells
# as §2
# as §3, with “NPM/ALK, NPM/ALK positive SUDHL-1 cells, ALK-negative” for “bcr-abl, Abl-negative”, “NPM/ALK” for “or Bcr-abl”, “KARPAS-299” for “LAMA-84”, “Alk-negative” for “Abl-negative”, “^3[H]-thymidine” for “^3H-thymidine”
# [9] = system: Bcr-abl positive LAMA-84 cells; assay: Tritiated thymidine uptake cell proliferation assay, LAMA-84; type: cell-based; conditions: Homo sapiens, 3[H]-thymidine uptake, 72 h
# Procedure: as §1, §2, §3
# [10] = system: NPM/ALK positive SUDHL-1 cells; assay: Tritiated thymidine uptake cell proliferation assay, SUDHL-1; type: cell-based; conditions: 3[H]-thymidine uptake, 72 h
# In short: as §4
# T1 sequence (Q9UM73 19-1620): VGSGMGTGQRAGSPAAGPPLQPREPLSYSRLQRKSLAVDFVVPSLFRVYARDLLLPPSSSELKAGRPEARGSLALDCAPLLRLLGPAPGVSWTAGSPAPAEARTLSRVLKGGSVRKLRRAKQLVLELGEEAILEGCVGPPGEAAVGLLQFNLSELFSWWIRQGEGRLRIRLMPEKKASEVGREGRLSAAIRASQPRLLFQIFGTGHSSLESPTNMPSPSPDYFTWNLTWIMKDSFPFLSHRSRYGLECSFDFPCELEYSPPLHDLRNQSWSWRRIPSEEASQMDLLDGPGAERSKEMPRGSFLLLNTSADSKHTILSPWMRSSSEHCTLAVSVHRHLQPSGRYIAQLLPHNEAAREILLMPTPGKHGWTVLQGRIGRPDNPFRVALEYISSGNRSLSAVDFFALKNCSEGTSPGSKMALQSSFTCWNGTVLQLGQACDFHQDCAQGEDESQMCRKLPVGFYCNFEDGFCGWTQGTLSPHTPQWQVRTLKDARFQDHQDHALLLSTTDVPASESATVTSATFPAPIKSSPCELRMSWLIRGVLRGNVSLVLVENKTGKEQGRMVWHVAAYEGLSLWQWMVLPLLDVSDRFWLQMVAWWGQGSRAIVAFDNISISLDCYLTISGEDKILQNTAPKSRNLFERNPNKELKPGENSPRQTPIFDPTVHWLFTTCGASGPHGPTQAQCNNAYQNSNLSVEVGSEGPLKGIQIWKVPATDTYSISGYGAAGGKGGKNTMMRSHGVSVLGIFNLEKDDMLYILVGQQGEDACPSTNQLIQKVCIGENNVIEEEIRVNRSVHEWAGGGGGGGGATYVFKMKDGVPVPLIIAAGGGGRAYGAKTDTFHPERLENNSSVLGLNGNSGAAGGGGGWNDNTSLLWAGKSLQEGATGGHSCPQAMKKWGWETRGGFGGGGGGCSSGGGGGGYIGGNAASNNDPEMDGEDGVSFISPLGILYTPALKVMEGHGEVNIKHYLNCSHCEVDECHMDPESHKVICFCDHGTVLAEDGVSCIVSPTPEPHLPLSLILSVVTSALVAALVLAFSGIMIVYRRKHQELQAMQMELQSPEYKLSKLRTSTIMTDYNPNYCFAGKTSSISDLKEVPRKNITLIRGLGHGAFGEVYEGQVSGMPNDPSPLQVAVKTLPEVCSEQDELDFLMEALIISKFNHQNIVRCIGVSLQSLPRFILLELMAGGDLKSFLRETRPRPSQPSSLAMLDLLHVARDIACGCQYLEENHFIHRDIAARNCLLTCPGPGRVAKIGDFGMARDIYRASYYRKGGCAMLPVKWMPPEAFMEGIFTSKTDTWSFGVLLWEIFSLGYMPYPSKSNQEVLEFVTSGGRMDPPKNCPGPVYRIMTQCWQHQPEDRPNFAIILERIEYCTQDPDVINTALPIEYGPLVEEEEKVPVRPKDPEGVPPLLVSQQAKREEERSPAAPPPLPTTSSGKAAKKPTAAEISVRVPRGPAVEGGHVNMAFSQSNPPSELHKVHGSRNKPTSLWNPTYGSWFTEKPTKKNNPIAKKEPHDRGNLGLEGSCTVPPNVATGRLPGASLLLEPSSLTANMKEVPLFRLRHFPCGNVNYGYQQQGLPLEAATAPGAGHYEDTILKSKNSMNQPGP
Structure (SMILES),IC50 [1] [µM],IC50 [2] [µM],GI50 [3] [µM],IC50 [4] [µM],GI50 [5] [µM],GI50 [6] [µM],IC50 [7] [µM],IC50 [8] [µM],IC50 [9] [µM],IC50 [10] [µM]
CN1CCN(Cc2ccc(C(=O)Nc3nc(-c4ccc5[nH]c6ncccc6c5c4)cs3)cc2)CC1 [R222],88 ± 4.3,8.8 ± 1.6,2.5,1.5,1.6,1.5,> 100,–,–,–
O=C(CBr)c1ccc2[nH]c3ncccc3c2c1 [R228],–,16,18,13,11,8,13 ± 4.6,–,–,–
"Clc1cnc2[nH]c3ccc(Br)cc3c2c1 [R252, 6-bromo-3-chloro-9H-pyrido[2,3-b]indole]",1.7 ± 0.4,–,> 20,> 20,–,> 20,–,> 20,–,–
"COc1ccc(CNC(=O)CCC(=O)c2ccc3[nH]c4ncc(Cl)cc4c3c2)cc1 [R304, 4-(3-Chloro-9H-pyrido[2,3-b]indol-6-yl)-N-(4-methoxybenzyl)-4-oxobutyramide]",–,–,–,19 ± 7,–,2.6 ± 1,5,–,1.6,8.4
"O=C(CSc1ccccc1)c1ccc2[nH]c3nc(Cl)ccc3c2c1 [R306, 1-(2-Chloro-9H-pyrido[2,3-b]indol-6-yl)-2-phenylsulfanylethanone]",0.8 ± 0.3,1.3,–,25 ± 3,–,7.3 ± 0.3,3.5 ± 0.03,–,1.4,5.7
"COc1ccc(-c2ccc3[nH]c4nc(-c5ccc(OC)cc5)ccc4c3c2)cc1 [R311, 2,6-di(4-methoxyphenyl)-9H-pyrido[2,3-b]indole]",–,–,–,> 100,–,15 ± 3,8.3,–,55,32
"C(=C\c1cnc2[nH]c3ccc(-c4ccc(CN5CCOCC5)cc4)cc3c2c1)/c1ccccc1 [R314, 6-(4-(morpholin-4-yl)methylphenyl)-3-(2′-phenylethenyl)-9H-pyrido[2,3-b]indole]",–,–,–,–,–,1.6 ± 0.1,> 50,–,2.1,2.1
